One assay deals with T1, GSS (Homo sapiens, UniProt P48637).
T1 construct: purchased Abcam
T1 sequence (P48637 1-474): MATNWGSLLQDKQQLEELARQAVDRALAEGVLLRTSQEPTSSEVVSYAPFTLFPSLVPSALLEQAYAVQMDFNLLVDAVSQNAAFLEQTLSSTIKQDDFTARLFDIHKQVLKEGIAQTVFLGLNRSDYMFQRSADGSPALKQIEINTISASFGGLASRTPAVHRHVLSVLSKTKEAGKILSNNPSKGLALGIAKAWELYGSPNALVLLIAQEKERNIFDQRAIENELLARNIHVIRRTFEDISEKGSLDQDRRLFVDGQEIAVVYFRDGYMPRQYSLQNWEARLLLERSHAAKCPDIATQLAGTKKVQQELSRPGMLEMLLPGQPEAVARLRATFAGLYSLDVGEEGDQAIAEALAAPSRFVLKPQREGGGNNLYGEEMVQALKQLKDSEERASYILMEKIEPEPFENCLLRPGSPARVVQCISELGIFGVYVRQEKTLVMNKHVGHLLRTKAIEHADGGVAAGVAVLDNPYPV
Kind of assay: BLI binding assay, GSS. As for the experimental part:
The binding kinetics of PepE or PepA to purified recombinant proteins were determined using BLI on an Octet RED 96 system (ForteBio, Shanghai, China) following the manufacturer's protocol. All interaction analyses were performed at 25 °C in PBS with 0.2% DMSO. Purified recombinant proteins (0.9 μM, the TrxR1 full length and TrxR1 protein fragment were pre-reduced by 400 μM of NADPH before test) were pre-labeled with biotin using […] (Abcam) following the manufacturer's instruction. Loading of the Dip and Read Super Streptavidin (SSA) Biosensors (ForteBio) were conducted by exposing biotinylated proteins to biosensor tips for 2 h. The 96-well microplates used in the Octet were filled with 200 μL sample or buffer per well and agitated at 1000 rpm. The loaded biosensors were washed in buffer for 600 s and transferred to wells containing PepE at concentrations of 0.625, 1.25, 2.5, 5, and 10 μM or PepA at concentrations of 1.25, 2.5, 5, 10 and 20 μM, respectively, in the buffer. […] Reference measurements were conducted using the buffer instead of PepE (or PepA). A parallel set of SA unloaded biosensors was prepared to act as a control. The sample-sensorgrams were corrected by subtracting the double reference curve. Kinetic parameters (Kon and Kdis) and affinity (KD) were determined from a global fit to a 1:1 binding model of the data between proteins and PepE using Octet software (ForteBio).

The next assay has as its target T2, recombinant human TrxR1 (Homo sapiens, UniProt Q16881).
T2 construct: purchased Abcam ab204206
T2 sequence (Q16881 1-499 isoform Q16881-5): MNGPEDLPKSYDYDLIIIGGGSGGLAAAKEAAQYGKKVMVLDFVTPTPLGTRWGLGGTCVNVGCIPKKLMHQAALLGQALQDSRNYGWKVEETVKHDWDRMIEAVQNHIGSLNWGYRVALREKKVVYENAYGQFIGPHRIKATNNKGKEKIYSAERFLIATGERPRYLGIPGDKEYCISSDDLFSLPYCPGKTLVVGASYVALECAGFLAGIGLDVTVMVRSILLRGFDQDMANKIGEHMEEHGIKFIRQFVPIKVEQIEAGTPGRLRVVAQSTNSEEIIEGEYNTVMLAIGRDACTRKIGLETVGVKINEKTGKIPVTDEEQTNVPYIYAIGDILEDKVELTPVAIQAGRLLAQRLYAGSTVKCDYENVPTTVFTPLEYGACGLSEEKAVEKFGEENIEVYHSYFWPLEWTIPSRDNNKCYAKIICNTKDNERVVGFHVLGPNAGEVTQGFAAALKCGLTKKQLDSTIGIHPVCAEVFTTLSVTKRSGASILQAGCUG
Kind of assay: NADPH oxidative activity assay. In kind it is biochemical. The note with it: 5 μM, TrxR1 0.2 μM. The method, then:
The NADPH oxidative activity by TrxR1 in the presence of PepE was performed according to the previous reports. Briefly, the recombinant human TrxR1 protein (0.2 μM) was incubated with either 5 μM of PepE or 5 μM of DNCB at room temperature in assay buffer (50 mM Tris-HCl, 1 mM EDTA, pH = 7.5), same amount of DMSO was used as negative control. NADPH was then added (final concentration was set at 200 μM) and the absorbance was monitored at 340 nm for 30 min using the SpectraMax i3x microplate reader (Molecular Devices), the molar extinction coefficient was set as 6200 M^−1cm^−1. The linear decrease in NADPH absorbance was used for calculating NADPH consumption rate and expressed as NADPH μM^−1min^−1enzyme μM^−1.

Assay [1] deals with T3, TrxR1 without Sec498 residue (TrxR1 nSec) (Homo sapiens, UniProt Q16881).
T3 construct: protein fragment, without selenocysteine residue; purchased Abcam ab168011
T3 sequence (Q16881 1-497 isoform Q16881-5): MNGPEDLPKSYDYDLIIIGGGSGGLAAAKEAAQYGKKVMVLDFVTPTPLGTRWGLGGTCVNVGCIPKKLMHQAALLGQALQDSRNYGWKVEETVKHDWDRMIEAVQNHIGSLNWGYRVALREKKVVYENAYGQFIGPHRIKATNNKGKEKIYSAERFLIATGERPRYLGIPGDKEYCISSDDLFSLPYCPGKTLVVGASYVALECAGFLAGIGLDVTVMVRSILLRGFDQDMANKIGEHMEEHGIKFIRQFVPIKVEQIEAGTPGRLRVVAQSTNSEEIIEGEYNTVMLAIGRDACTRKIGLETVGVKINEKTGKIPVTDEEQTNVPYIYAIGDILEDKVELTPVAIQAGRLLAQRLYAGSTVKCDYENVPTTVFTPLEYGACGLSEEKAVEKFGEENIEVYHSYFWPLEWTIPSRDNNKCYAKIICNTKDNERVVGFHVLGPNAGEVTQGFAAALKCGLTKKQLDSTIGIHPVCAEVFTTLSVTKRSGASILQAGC
Kind of assay: In vitro TrxR1 activity assay (DTNB reduction), Sec-missing enzyme. The format is biochemical. To be noted: Sec-missing enzyme 0.1 μM. The method, then:
The in vitro TrxR1 activity assay was performed using the DTNB reduction assay. Briefly, 0.1 μM recombinant human TrxR1 or TrxR1 without Sec498 residue (TrxR1 nSec) protein was reduced with 100 μM NADPH in assay buffer (50 mM Tris-HCl, 1 mM EDTA, pH = 7.5) for 30 min at room temperature. The reduced proteins was then treated with the indicated concentrations of PepE (final concentrations of 0.25, 0.5, 1, 2, 4, 6 μM), respectively, and incubated for 1 h at 37 °C. A mixture of assay buffer solution (50 mM Tris-HCl, 1 mM EDTA, pH = 7.5) containing DTNB and NADPH was added then added, making the final concentrations of DTNB and NADPH 2 mM and 200 μM, respectively. The absorbance was monitored at 412 nm using the SpectraMax i3x microplate reader (Molecular Devices). The linear increase of absorbance during the initial 3 min was recorded for calculating the relative enzyme activity. The same amount of DMSO was added to the control experiments and the activity is expressed as the percentage of the control.

Structures are written as SMILES.

Turning to `C=C1C(=O)OC[C@H]1C(c1cc(OC)c2c(c1)OCO2)c1cc(OC)c2c(c1)OCO2` [PepE, Peperomin E], on GSS, the affinity, expressed as Kd, was 272 µM and the kon (usually the rate constant with which the complex forms) amounted to 2740 M⁻¹ s⁻¹. Also, the koff on GSS (read-out: Kdis) was 0.745 s⁻¹. Also, on recombinant human TrxR1, the “consumption of NADPH by TrxR1 relative to the control” value is on record as ~7 fold. Besides, the IC50 (in general, the concentration that inhibits the measured activity by half) in assay [1] was > 8 µM.

(Values after paper PMC6434189, “Peperomin E and its orally bioavailable analog induce oxidative stress-mediated apoptosis of acute myeloid leukemia progenitor cells by targeting thioredoxin reductase” (Redox Biology, 2019).)
